These results are taken from PubChem BioAssay AID1918995 (Molecular Pharmacology Branch, DTP, NCI, 2023).

This test concerns 324938-238-R-J1-PDC complex spheroid growth, % test/control. Kind of test: Anticancer human tumor 324938-238-R-J1-PDC patient-derived bladder carcinoma cell line growth inhibition [AhR]. The conditions noted are these: for viability, T/C: stronger effect = lower value. The source says:
Multicellular complex tumor spheroid response to aryl hydrocarbon receptor antagonists in combination with a variety of drugs and investigational agents in selected tumor cell lines
The current study was undertaken to assess response to aryl hydrocarbon receptor antagonists in combination with standard-of-care drugs and investigational agents in solid tumor complex spheroid models. Complex spheroids include a stromal component modeled by human endothelial cells (HUVEC) and fibroblasts modeled by human mesenchymal stem cells (MSCs). The concentration ranges selected for each drug and investigational agent were based upon clinically achievable concentrations if the clinical Cmax of the agent was known.
Compounds. The drugs and investigational agents: BAY 2416964 (NSC825713), GNF351 (NSC835774), CH-223191 (NSC835775), CPI-455 (NSC825282), aza-TdCyd (NSC777586), decitabine (NSC127716), belinostat (NSC758774), entinostat (NSC756642), pevonedistat (NSC761192), tazemetostat (NSC777109), talazoparib (NSC765396), olaparib (NSC753686), selinexor (NSC780203), nedisertib (M3814, NSC802822), bortezomib (NSC756655), venetoclax (NSC766270), doxorubicin (NSC123127), elimusertib (BAY189344, NSC800525), ceralasertib (AZD6738, NSC777638), TAK-243 (NSC785004), alisertib (NSC759677), etoposide (NSC141540), topotecan (NSC609699), eribulin (NSC707389), gemcitabine (NSC613327), carboplatin (NSC241240), cisplatin (NSC119875), and SN-38 (NSC673596) were obtained from the National Cancer Institute (NCI) Developmental Therapeutics Program Chemical Repository (32). The FDA-approved anticancer drug set is available from the Developmental Therapeutics Program at https://dtp.cancer.gov/organization/dscb/obtaining/available plates.htm. […] The stock solutions were prepared in dimethyl sulfoxide (DMSO, Sigma-Aldrich, St. Louis, MO, cat. D2650), except for the platinum compounds which were prepared in saline (Quality Biological, Gaithersburg, MD, cat. 114-055-101), at 800-fold the tested concentration and stored at -70 degrees C prior to their use. All drugs and investigational agents were tested over a range starting from a high concentration at or near the clinical Cmax and decreasing in half-log increments. If the clinical Cmax for an agent had not been determined, the highest concentration tested was 10 microM (Table 1).
Cell Culture. All cells were maintained in an incubator at 37 degrees C and 5% CO2 with 95% humidity. The PDC lines were cultured according to standard operating procedures established by the NCI PDMR (https://pdmr.cancer.gov). Briefly, all PDCs were thawed and cultured in Matrigel-coated flasks prepared with a working solution of 1X Ham's F-12 nutrient mix, without supplementation (Invitrogen, Waltham, MA, cat. 11765054), 100 U/mL penicillin-streptomycin (Invitrogen, cat. 15140122), and 2.5% Matrigel (Corning Inc., Corning, NY, cat. 354248) for the first three passages. All PDCs were cultured in complete DMEM/F-12 media containing advanced DMEM/F-12 (Invitrogen, cat. 12634028), 4.9% defined fetal bovine serum, heat inactivated (HyClone Laboratories Inc., Logan, UT, cat. SH30070.03HI), 389 ng/mL hydrocortisone (Sigma-Aldrich, cat. H4001), 9.7 ng/mL human EGF recombinant protein (Invitrogen, cat. PHG0313), 23.4 microg/mL adenine (Sigma-Aldrich, cat. A2786), 97.3 U/mL penicillin-streptomycin (Invitrogen, cat. 15140122), 1.9 mM L-glutamine (Invitrogen, cat. 25030081), and 9.7 microM Y-27632 dihydrochloride (Tocris Bioscience, Bristol, United Kingdom, cat. 1254). The PDCs were cultured in complete DMEM/F12 media without 10 microM Y-27632 dihydrochloride for at least two passages prior to the screen. The established cell lines NCI-H1341 and […] were cultured in DMEM/F-12, HEPES (Invitrogen, cat. 11330032), 5% defined fetal bovine serum (HyClone Laboratories Inc., cat. SH30070.03), ITS premix universal culture supplement [insulin (5 microg/mL), transferrin (5 microg/mL), and selenious acid (5 ng/mL)] […]

Setting [1] is: curve of first compound, second compound 0.1 µM.
[2] abbreviates: curve of first compound, second compound 0.316 µM.
[3] abbreviates: curve of first compound, second compound 1 µM.
The mark [4] stands for this setting: curve of first compound, second compound 3.16 µM.
Setting [5] is: curve of first compound, second compound 10 µM.
Where [6] appears, read: second compound 0.1 µM, first compound 0.0316 µM.
The mark [7] stands for this setting: second compound 0.1 µM, first compound 0.1 µM.
[8] abbreviates: second compound 0.1 µM, first compound 0.316 µM.
Setting [9] is: second compound 0.1 µM, first compound 1 µM.
The mark [10] stands for this setting: second compound 0.1 µM, first compound 3.16 µM.
[11] abbreviates: second compound 0.1 µM, first compound 10 µM.
Setting [12] is: second compound 0.316 µM, first compound 0.0316 µM.
[13] abbreviates: second compound 0.316 µM, first compound 0.1 µM.
The mark [14] stands for this setting: second compound 0.316 µM, first compound 0.316 µM.
Setting [15] is: second compound 0.316 µM, first compound 1 µM.
The mark [16] stands for this setting: second compound 0.316 µM, first compound 3.16 µM.
Setting [17] is: second compound 0.316 µM, first compound 10 µM.
[18] abbreviates: second compound 1 µM, first compound 0.0316 µM.
The mark [19] stands for this setting: second compound 1 µM, first compound 0.1 µM.
Setting [20] is: second compound 1 µM, first compound 0.316 µM.
Setting [21] is: second compound 1 µM, first compound 1 µM.
Where [22] appears, read: second compound 1 µM, first compound 3.16 µM.
The mark [23] stands for this setting: second compound 1 µM, first compound 10 µM.
Where [24] appears, read: second compound 3.16 µM, first compound 0.0316 µM.
Setting [25] is: second compound 3.16 µM, first compound 0.1 µM.
Where [26] appears, read: second compound 3.16 µM, first compound 0.316 µM.
Setting [27] is: second compound 3.16 µM, first compound 1 µM.
[28] abbreviates: second compound 3.16 µM, first compound 3.16 µM.
Setting [29] is: second compound 3.16 µM, first compound 10 µM.
The mark [30] stands for this setting: second compound 10 µM, first compound 0.0316 µM.
Where [31] appears, read: second compound 10 µM, first compound 0.1 µM.
The mark [32] stands for this setting: second compound 10 µM, first compound 0.316 µM.
The mark [33] stands for this setting: second compound 10 µM, first compound 1 µM.
[34] abbreviates: second compound 10 µM, first compound 3.16 µM.
Setting [35] is: second compound 10 µM, first compound 10 µM.

The term IC50 denotes the concentration that gives 50% inhibition. Usually viability, T/C stands for the result in the treated group divided by that in the control group, in per cent.

Molecules are shown by their SMILES. Several values for one entry are separate records, joined by “and”; a condition that tells them apart may be missing. Equal entries are not always repeated.
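Further: spheroids exposed to agents for seven days before viability read.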

As to `CC(C)c1c(-c2ccccc2)nc2c(C#N)c[nH]n2c1=O` + Cc1ccccc1N=Nc1ccc(NC(=O)c2ccnn2C)c(C)c1, the IC50 reads like this: under setting [1], > 10000 nM; under setting [2], > 10000 nM; under setting [3], > 10000 nM; under setting [4], > 10000 nM; under setting [5], > 10000 nM. In addition, the viability, T/C runs as follows: under setting [6], 101%; under setting [7], 91.3%; under setting [8], 95.5%; under setting [9], 83.9%; under setting [10], 92.1%; under setting [11], 73.9%. Besides, the viability, T/C is 87.3% under setting [12]; 92.9% under setting [13]; 90.7% under setting [14]; 81.6% under setting [15]; 75.3% under setting [16]; 68% under setting [17]. Further, the viability, T/C is, setting by setting: under setting [18], 80.1%; under setting [19], 91.8%; under setting [20], 76%; under setting [21], 80.5%; under setting [22], 68.3%; under setting [23], 65.8%. The viability, T/C is, setting by setting: under setting [24], 80.1%; under setting [25], 81.4%; under setting [26], 64.9%; under setting [27], 67.5%; under setting [28], 65.7%; under setting [29], 56%. Besides, the viability, T/C is 70.8% under setting [30]; 75.2% under setting [31]; 79.4% under setting [32]; 65.1% under setting [33]; 54.4% under setting [34]; 61% under setting [35].

For the molecule `Nc1ncn(C2CC(O)C(CO)S2)c(=O)n1` (stereo not drawn), the viability, T/C reads like this: (compound 0.000949 µM) 106% and 103% and 93.4%; (compound 0.003 µM) 86.6% and 105% and 95.5%; (compound 0.00949 µM) 86.8% and 106% and 94.1%; (compound 0.03 µM) 116% and 92.5% and 88.8%; (compound 0.0949 µM) 96.4% and 71.2% and 66.3%; (compound 0.3 µM) 138% and 60.1% and 43.4%. The IC50 (curve of compound) was > 300 nM and 215 nM.

Take `COc1ccc([C@@H](O)c2cc(-c3ncnc4cc(N5CCOCC5)ccc34)c(F)cc2Cl)nn1` + CC(CO)NC(=O)c1cc(-c2ccc(Cl)cc2)nn(-c2cnn(C)c2)c1=O: the IC50 reads like this: under setting [1], > 10000 nM; under setting [2], > 10000 nM; under setting [3], > 10000 nM; under setting [4], > 10000 nM; under setting [5], > 10000 nM. The viability, T/C by setting is: under setting [6], 99.4%; under setting [7], 110%; under setting [8], 90.2%; under setting [9], 81.8%; under setting [10], 78.5%; under setting [11], 66.5%. Further, the viability, T/C is, setting by setting: under setting [12], 89.4%; under setting [13], 93.4%; under setting [14], 96.8%; under setting [15], 76.4%; under setting [16], 71.6%; under setting [17], 59.5%. Moreover, the viability, T/C runs as follows: under setting [18], 88.8%; under setting [19], 88.7%; under setting [20], 91.6%; under setting [21], 70.6%; under setting [22], 59.5%; under setting [23], 60.1%. Besides, the viability, T/C runs as follows: under setting [24], 75.2%; under setting [25], 71.1%; under setting [26], 68.3%; under setting [27], 60%; under setting [28], 63.6%; under setting [29], 51.8%. The viability, T/C reads like this: under setting [30], 70.7%; under setting [31], 65.5%; under setting [32], 63.8%; under setting [33], 56.1%; under setting [34], 55%; under setting [35], 55.8%.

As for `Nc1ccn(C2OC(CO)C(O)C2(F)F)c(=O)n1` (stereo not drawn) + CC(CO)NC(=O)c1cc(-c2ccc(Cl)cc2)nn(-c2cnn(C)c2)c1=O, the IC50 is < 31.6 nM under setting [1]; < 31.6 nM under setting [2]; < 31.6 nM under setting [3]; < 31.6 nM under setting [4]; 38.6 nM under setting [5]. For the same molecule, the viability, T/C was 36.8% under setting [6]; 24.1% under setting [7]; 18.3% under setting [8]; 17.9% under setting [9]; 15.3% under setting [10]; 12.3% under setting [11]. The viability, T/C is, setting by setting: under setting [12], 34.3%; under setting [13], 27.3%; under setting [14], 21.7%; under setting [15], 18.6%; under setting [16], 16%; under setting [17], 11.6%. The viability, T/C is 39% under setting [18]; 30.7% under setting [19]; 20.2% under setting [20]; 19.9% under setting [21]; 17.6% under setting [22]; 12.9% under setting [23]. Also, the viability, T/C by setting is: under setting [24], 43.2%; under setting [25], 38.6%; under setting [26], 19.3%; under setting [27], 19.8%; under setting [28], 18.9%; under setting [29], 11.8%. Also, the viability, T/C is 51.3% under setting [30]; 43.1% under setting [31]; 24.9% under setting [32]; 21.4% under setting [33]; 19.1% under setting [34]; 14.2% under setting [35].

For `O=C(C=Cc1cccc(S(=O)(=O)Nc2ccccc2)c1)NO`, the viability, T/C is, setting by setting: (compound 0.0316 µM) 100% and 110% and 114%; (compound 0.1 µM) 92% and 98.7% and 110%; (compound 0.316 µM) 109% and 89.2% and 81.5%; (compound 1 µM) 85.5% and 66.9% and 72.5%; (compound 3.16 µM) 46% and 49.9% and 51.9%. Under “curve of compound”, the IC50 is 2790 nM and 2980 nM and 2550 nM.
